The values that follow come from PubChem BioAssay AID248 (DTP/NCI, 2004).

“And” between values parts separate entries of the source, which are not always exact repeats. Identical values can stand only once. Inconclusive results and toxic doses are left out.

The test system of the test is L1210 leukemia ip in BDF1 mice, survival T/C. The experiment in a line: NCI In Vivo Anticancer Drug Screen. Data for tumor model L1210 Leukemia (intraperitoneal) in B6D2F1 (BDF1) mice. To be noted: endpoint: mean survival time, higher = longer survival. A digest of the protocol: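 Mice bearing the transplanted tumor received compound or vehicle. Survival of the treated group was divided by that of the vehicle-treated control group to give the ratio.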

Where [1] appears, read: dose: 100.0 mg/kg/injection, schedule: Q01DX009 (ip), vehicle: Klucel (hydroxypropylcellulose) (HPC).
The mark [2] stands for this setting: dose: 100.0 mg/kg/injection, schedule: Q04DX003 (ip), vehicle: Klucel (hydroxypropylcellulose) (HPC).
The mark [3] stands for this setting: dose: 200.0 mg/kg/injection, schedule: Q01DX009 (ip), vehicle: Klucel (hydroxypropylcellulose) (HPC).
[4] abbreviates: dose: 200.0 mg/kg/injection, schedule: Q04DX003 (ip), vehicle: Klucel (hydroxypropylcellulose) (HPC).
The mark [5] stands for this setting: dose: 400.0 mg/kg/injection, schedule: Q01DX009 (ip), vehicle: Klucel (hydroxypropylcellulose) (HPC).
Setting [6] is: dose: 400.0 mg/kg/injection, schedule: Q04DX003 (ip), vehicle: Klucel (hydroxypropylcellulose) (HPC).
Where [7] appears, read: dose: 200.0 mg/kg/injection, schedule: Q01DX001 (ip), vehicle: carboxymethylcellulose (CMC).
Where [8] appears, read: dose: 400.0 mg/kg/injection, schedule: Q01DX001 (ip), vehicle: carboxymethylcellulose (CMC).
Setting [9] is: dose: 100.0 mg/kg/injection, schedule: Q01DX001 (ip), vehicle: Klucel (hydroxypropylcellulose) (HPC).
[10] abbreviates: dose: 200.0 mg/kg/injection, schedule: Q01DX001 (ip), vehicle: Klucel (hydroxypropylcellulose) (HPC).
Where [11] appears, read: dose: 400.0 mg/kg/injection, schedule: Q01DX001 (ip), vehicle: Klucel (hydroxypropylcellulose) (HPC).
[12] abbreviates: dose: 100.0 mg/kg/injection, schedule: Q01DX001 (ip), vehicle: carboxymethylcellulose (CMC).
Setting [13] is: dose: 100.0 mg/kg/injection, schedule: Q01DX009 (ip), vehicle: saline.
Where [14] appears, read: dose: 200.0 mg/kg/injection, schedule: Q01DX009 (ip), vehicle: saline.
The mark [15] stands for this setting: dose: 400.0 mg/kg/injection, schedule: Q01DX009 (ip), vehicle: saline.

For `O=C(/C=C/C(=O)Oc1ccc(Cl)cc1Cl)Oc1ccc(Cl)cc1Cl`, the T/C was 94 % of control under setting [1]; 111 % of control under setting [2]; 95 % of control under setting [3]; 100 % of control under setting [4]; 97 % of control under setting [5]; 100 % of control under setting [6].

For `Cc1ccc2nc(NC(=O)N(CCCl)N=O)sc2c1`, the T/C (dose: 53.0 mg/kg/injection, schedule: Q01DX009 (ip), vehicle: carboxymethylcellulose (CMC)) was 103 % of control; the T/C (dose: 80.0 mg/kg/injection, schedule: Q01DX009 (ip), vehicle: carboxymethylcellulose (CMC)) is 113 % of control; the T/C (dose: 118.0 mg/kg/injection, schedule: Q01DX001 (ip), vehicle: other) is 150 % of control; the T/C (dose: 118.0 mg/kg/injection, schedule: Q01DX006 (ip), vehicle: other) is 193 % of control; the T/C (dose: 120.0 mg/kg/injection, schedule: Q01DX009 (ip), vehicle: carboxymethylcellulose (CMC)) was 114 % of control; the T/C (dose: 180.0 mg/kg/injection, schedule: Q01DX001 (ip), vehicle: carboxymethylcellulose (CMC)) is 157 % of control. The T/C runs as follows: under setting [7], 158 % of control; (dose: 266.0 mg/kg/injection, schedule: Q01DX006 (ip), vehicle: other) 98 % of control; (dose: 266.0 mg/kg/injection, schedule: Q01DX009 (ip), vehicle: carboxymethylcellulose (CMC)) 161 % of control; under setting [8], 170 % of control; (dose: 400.0 mg/kg/injection, schedule: Q01DX006 (ip), vehicle: other) 90 % of control.

On to `OC(Cn1cnc2ccccc21)c1ccccc1` (stereo not drawn), for which the T/C is 96 % of control under setting [2], 97 % of control under setting [4] and 94 % of control under setting [6].

Take `CCOP(=S)(Nc1cccc(C(F)(F)F)c1)OCC`: the T/C was 102 % of control (dose: 100.0 mg/kg/injection, schedule: Q01DX001 (ip), vehicle: saline); 100 % of control (dose: 200.0 mg/kg/injection, schedule: Q01DX001 (ip), vehicle: saline); 96 % of control (dose: 400.0 mg/kg/injection, schedule: Q01DX001 (ip), vehicle: saline).

For `CCOC(=O)c1c(C)[nH]c(-c2ccccc2)c1C`, the T/C by setting is: under setting [1], 109 % of control; under setting [2], 102 % of control; under setting [3], 97 % of control; under setting [4], 100 % of control; under setting [5], 95 % of control; under setting [6], 94 % of control.

In the case of `Nc1cc2oc3ccccc3c2c2cccnc12`, the T/C under setting [9] was 103 % of control; the T/C under setting [2] was 106 % of control; the T/C under setting [10] is 100 % of control; the T/C under setting [4] was 103 % of control; the T/C under setting [11] was 91 % of control; the T/C under setting [6] is 103 % of control.

In the case of `CN(C)CCCN1c2ccccc2Sc2ccc(F)cc21`, the T/C is, setting by setting: (dose: 3.12 mg/kg/injection, schedule: Q04DX003 (ip), vehicle: saline) 94 % of control; (dose: 6.25 mg/kg/injection, schedule: Q04DX003 (ip), vehicle: saline) 97 % of control; (dose: 12.5 mg/kg/injection, schedule: Q04DX003 (ip), vehicle: saline) 108 % of control; (dose: 25.0 mg/kg/injection, schedule: Q04DX003 (ip), vehicle: saline) 111 % of control.

In the case of `CC1(C)Oc2nc(N)nc(N)c2C1c1ccc(Cl)cc1` (stereo not drawn), the T/C by setting is: under setting [2], 106 % of control; under setting [4], 97 % of control; under setting [6], 103 % of control.

Consider `O=c1[nH]cnc2c1nc([Se])n2C1OC(CO)C(O)C1O` (stereo not drawn), for which the T/C was 102 % of control (dose: 100.0 mg/kg/injection, schedule: Q01DX005 (ip), vehicle: saline) and 107 % of control (dose: 200.0 mg/kg/injection, schedule: Q01DX005 (ip), vehicle: saline).

Take `c1ccc2c(CC3=NCCN3)cccc2c1`: the T/C is, setting by setting: (dose: 12.5 mg/kg/injection, schedule: Q01DX009 (ip), vehicle: saline with Tween-80) 96 % of control; (dose: 25.0 mg/kg/injection, schedule: Q01DX009 (ip), vehicle: saline with Tween-80) 103 % of control.

Turning to `COc1ccc(OC)c(/C=C2\SC(=S)N(C3OC(COC(C)=O)C(OC(C)=O)C(OC(C)=O)C3OC(C)=O)C2=O)c1` (stereo not drawn), the T/C is 101 % of control (dose: 25.0 mg/kg/injection, schedule: Q01DX005 (ip), vehicle: other); 108 % of control (dose: 50.0 mg/kg/injection, schedule: Q01DX005 (ip), vehicle: other); 101 % of control (dose: 100.0 mg/kg/injection, schedule: Q01DX005 (ip), vehicle: other); 97 % of control (dose: 200.0 mg/kg/injection, schedule: Q01DX005 (ip), vehicle: other); 104 % of control (dose: 400.0 mg/kg/injection, schedule: Q01DX005 (ip), vehicle: other).

For `NC(=S)N/N=C/c1ccc(Br)s1`, the T/C runs as follows: under setting [12], 87 % of control; under setting [7], 100 % of control.

As to `Cc1nc(C)c(C(=O)O)cc1C(=O)O`, the T/C is 104 % of control under setting [13], 101 % of control under setting [14] and 100 % of control under setting [15].

`COc1cc(/C=C/C(=O)O)cc(Br)c1O`: the T/C reads like this: under setting [2], 104 % of control; under setting [4], 101 % of control; under setting [6], 103 % of control.

Take `O=C(OC1CC2CC1C1C=CCC21)c1ccc([N+](=O)[O-])cc1` (stereo not drawn): the T/C runs as follows: (dose: 44.0 mg/kg/injection, schedule: Q01DX001 (ip), vehicle: carboxymethylcellulose (CMC)) 94 % of control and 97 % of control; (dose: 50.0 mg/kg/injection, schedule: Q01DX001 (ip), vehicle: carboxymethylcellulose (CMC)) 102 % of control; (dose: 67.0 mg/kg/injection, schedule: Q01DX001 (ip), vehicle: carboxymethylcellulose (CMC)) 94 % of control and 100 % of control; under setting [9], 104 % of control; under setting [12], 94 % of control and 100 % of control; under setting [1], 101 % of control. Moreover, the T/C by setting is: (dose: 150.0 mg/kg/injection, schedule: Q01DX001 (ip), vehicle: carboxymethylcellulose (CMC)) 86 % of control and 91 % of control; under setting [10], 93 % of control; under setting [7], 90 % of control; under setting [3], 104 % of control; under setting [11], 104 % of control; under setting [8], 96 % of control. Under setting [5], the T/C is 101 % of control.

In the case of `C=COCCC(C(=O)OCC)C(=O)OCC`, the T/C runs as follows: under setting [13], 100 % of control; under setting [14], 96 % of control; under setting [15], 100 % of control.

Regarding `CC12CC3CC(C1)CC(NCCO)(C3)C2`, the T/C by setting is: (dose: 10.0 mg/kg/injection, schedule: Q04DX002 (ip), vehicle: Klucel (hydroxypropylcellulose) (HPC)) 87 % of control; (dose: 20.0 mg/kg/injection, schedule: Q04DX002 (ip), vehicle: Klucel (hydroxypropylcellulose) (HPC)) 91 % of control; (dose: 40.0 mg/kg/injection, schedule: Q04DX002 (ip), vehicle: Klucel (hydroxypropylcellulose) (HPC)) 91 % of control.
